Measured values taken from US20060135611A1, “Use of 2,5-dihydroxybenzenesulfonic compounds for the treatment of disorders based on an impairment of no production and/or of regulation of edhf function” (priority 2002, published 2006).

Legend:
[1] = system: Male genetically diabetic rats (BB/wor rats); assay: Erectile responses to cavernosal nerve stimulation in anesthetized diabetic rats; assay type: in vivo, rat; settings: 10 mg/kg intravenous; 60 min after administration; 1, 3 and 10 Hz
Method: Male genetically diabetic rats (BB/wor rats, Mölegaard Breeding and Research, Svensved, Denmark) were anesthetized with ketamine (60 mg/kg). The surgical procedure consisted of dissection and isolation of the right cavernous nerve through an abdominal midline incision and exposure of penile crura through a transverse perineal incision. Intracavemosal pressure (ICP) measurements were accomplished by insertion into the right crus of a 23-gauge needle connected to a disposable pressure transducer (Abbott, Sligo, Ireland) and a data acquisition system (ADInstruments, Castle Hill, Australia). Left carotid artery and right external jugular vein were catheterized for constant blood pressure measurement and saline or drug infusion, respectively. Electrical stimulation was applied by a delicate platinum bipolar hook electrode connected to a stimulator and current amplifier (Cibertec, Madrid, Spain). […]
Relaxation responses are expressed as percentage of total relaxation (loss in tone) induced by the addition of 0.1 mM papaverine HCl to the chambers at the end of the experiment. All data are expressed as mean ± standard error. […] Erectile responses were determined by measuring the area under the curve (AUC) of the intracavemosal pressure increases to rat cavemosal nerve stimulation normalized by mean arterial pressure values. […]

[2] = system: human penile resistance arteries (HPRA); assay: Vascular reactivity of resistance penile arteries (myograph, norepinephrine-contracted)
Method: Penile small arteries, helicine arteries (lumen diameter 150-400 μm), which are the terminal branches of deep penile arteries, were dissected by carefully removing the adhering trabecular tissue, and arterial ring segments (of 2 mm length) were subsequently mounted on two 40 μm wires on microvascular double Halpern-Mulvany myographs (J.P. Trading, Aarhus, Denmark) for isometric tension recordings. The vascular segments were allowed to equilibrate for 30 min in physiological salt solution (PSS) of the following composition (each given in mM): 119 NaCl, 4.6 KCl; 1.5 CaCl2, 1.2 MgCl2, 24.9 NaHCO3, 11 Glucose, 1, 2 KH2PO4, 0.027 EDTA in water at 37° C., continuously bubbled with a 95% O2/5% CO2 mixture to maintain a pH of 7.4. Passive tension and internal circumference of the vascular segments when relaxed in situ under a transmural pressure of […] (L100) were determined. The vascular segments were then set to an internal circumference eqivalent to 90% of L100, at which the force development was close to maximal as described in Mulvany MJ, Halpern W., “Contractile properties of small resistance arteries in spontaneously hypertensive and normotensive rats”, Circ. Res., 41, 19-26, 1977. The respective literature description is incorporated by reference and is part of the disclosure.
The preparations were then exposed to 125 mM K^+(KPSS, equimolar substitution of […] in PSS) and the contractile response was measured. The arteries were contracted with 1 μm norepinephrine (approximately 80% of KPSS induced contraction) and relaxation responses were evaluated by cumulative additions of compounds to the chambers.
Relaxation responses are expressed as percentage of total relaxation (loss in tone) induced by the addition of 0.1 mM papaverine HCl to the chambers at the end of the experiment. All data are expressed as mean ± standard error. Complete concentration-response or frequency-response curves were obtained and compared by a two-factor analysis of variance (ANOVA) statistical test using StatView sotfware tor Apple computers. Erectile responses were determined by measuring the area under the curve (AUC) of the intracavemosal pressure increases to rat cavemosal nerve stimulation normalized by mean arterial pressure values. The complete frequency-response curves were compared by a two-factor ANOVA test.

O=S(=O)(O)c1cc(O)ccc1O [Calcium dobesilate, calcium 2,5-dihydroxybenzenesulfonate]
erectile responses to cavernosal nerve stimulation (AUC of ICP increase normalized by mean arterial pressure) [1]: significantly enhanced
potentiating effects on ACh-induced relaxation of HPRA with APA and CTX ([2]; APA 100 nM + CTX 100 nM, NOS and COX inhibition): abolished the potentiating effects
effect on ACh-induced relaxation of HPRA ([2]; calcium dobesilate 10 μM): markedly potentiated
potentiation of ACh-induced relaxation of HPRA under combined inhibition of NOS and COX ([2]; calcium dobesilate 10 μM, NOS and COX inhibition): not significantly affected
potentiation of ACh-induced relaxation of HPRA at high potassium concentration ([2]; calcium dobesilate 10 μM, high potassium 35 mM): abolished
potentiating effects on ACh-induced relaxation of HPRA resistant to NOS and COX inhibition, with miconazole ([2]; miconazole 0.3 mM): significantly reduced the potentiating effects
